The text below walks through data of patent US6511966B2, “Mitochondria protecting agents for treating mitochondria associated diseases” (MitoKor, priority 1998, dated 2003).

pIC50: −log10 of the molar value. Where two headings read alike, the source gives them in different places.

For experiment [1], the system named is SH-SY5Y human neuroblastoma cells. Put plainly: DCFC assay for inhibition of ROS production, cell-based aspect. To be noted: read-out: IC50 Cell-Based (Inhibition of ROS, DCFC assay). From the text: According to this assay, the ability of a mitochondria protecting agent of the invention to inhibit production of ROS intracellularly may be compared to its antioxidant activity in a cell-free environment. […] Non-fluorescent DCFC is converted upon oxidation to a fluorophore that can be quantified fluorimetrically. Cell membranes are also permeable to DCFC, but the charged acetate groups of DCFC are removed by intracellular esterase activity, rendering the indicator less able to diffuse back out of the cell. In the cell-based aspect of the DCFC assay for inhibition of production of ROS, cultured cells may be pre-loaded with a suitable amount of DCFC and then contacted with a mitochondria protecting agent. After an appropriate interval, free radical production in the cultured cells may be induced by contacting them with iron (III)/ascorbate and the relative mean DCFC fluorescence can be monitored as a function of time. In the cell-based aspect of the DCFC assay, monolayers of cultured adherent SH-SY5Y human neuroblastoma cells (Biedler et al., Cancer Res. 33:2643, 1973) at or near confluence were rinsed and harvested using trypsin according to standard methods. […] The excess DCFC-DA was removed by needle aspiration and each well was gently rinsed twice with HBSS. Each well then received 80 μl of HBSS and 10 μl of mitochondria protecting agent, or vehicle control, diluted into HBSS from stock solutions of dimethylformamide or dimethylsulfoxide. The final concentration of the organic solvent was maintained at or below 0.1% (v/v) in HBSS while in contact with cells. Cells were equilibrated for 15 minutes at room temperature with the mitochondria protecting agent (or vehicle control) and then 10 μl of fresh 500 μM ferric chloride/300 μM ascorbate solution was added to initiate free radical formation. Fluorescence of each microculture in the 96-well plate was quantified immediately using a Cytofluor fluorimetric plate reader (model #2350, Millipore Corp., Bedford, Mass.; excitation wavelength=485 nm, emission wavelength=[…]) and t0 fluorescence was recorded. The 96-well plates were incubated 30 minutes at 37° C./5% CO2 and fluorescence at 530 nm was again measured (t30). […] The cells were then harvested by trypsinization and counted using a hemacytometer in order to normalize the data as Δ(t30,−t0)RMF per cell. The efficacy of a candidate mitochondria protecting agent was determined by comparing its ability to inhibit ROS production relative to the vehicle control.

Experiment [2] concerns SH-SY5Y neuroblastoma cells. As to the kind of experiment: Ionomycin induced apoptosis (membrane blebbing by light microscopy). The experiment is classed as cell-based, human. How it is done: SH-SY5Y neuroblastoma cells (1×10^5 cells) are rinsed with one volume 1×PBS, and then treated with 10 μM ionomycin (Calbiochem, San Diego, Calif.) in DMEM supplemented with 10% fetal calf serum (FCS) (Gibco, Life Technologies, Grand Island, N.Y.) for 10 minutes, followed by two washes with DMEM (10% FCS). After 6h incubation at 37° C. in DMEM (10% FCS), cells are visualized by light microscopy (20X magnification). […] When cells are simultaneously treated with ionomycin and 2 mM creatine, the proportion of cells undergoing apoptosis as evidenced by membrane blebbing is reduced to approximately 10%. Candidate mitochondria protecting agents are assayed to determine whether they provides the same magnitude of protection from induction of apoptosis as does creatine in this ionomycin induced apoptosis assay.

The mark [3] stands for this setting: Homo sapiens, 0.5 h, SH-SY5Y cells pre-loaded with DCFC-DA, ferric chloride/ascorbate induced free radical formation, fluorescence change over 30 minutes.

For `CCCCCCCCc1ccc(O)c(N)c1` [(I-2), 2-amino4octyl phenol], in experiment [1] (setting [3]), the pIC50 is 7.60.

With `CC(C)(C)CC(C)(C)c1ccc(O)c(N)c1` [(I-3)], the pIC50 in experiment [1] (setting [3]) was 7.19. As for `OCCCc1ccc(O)c(O)c1` [(I-5)], the negative-log IC50 (pIC50) in experiment [1] (setting [3]) is 7.00. With `CCCc1ccc(O)c(O)c1` [(I-6), 2-hydroxy4-propylphenol], in experiment [1] (setting [3]), the negative logarithm of the IC50 (pIC50) is 6.70. Regarding `CCCc1ccc(OC(C)=O)c(OC(C)=O)c1` [(I-8)], in experiment [1] (setting [3]), the pIC50 is 6.40. Regarding `CCCc1cc(O)ccc1O` [(I-10)], the negative-log IC50 (pIC50) in experiment [1] (setting [3]) is 6.92. The same measure, in the same setting: the same measure for `CC(C)(c1ccc(O)c(N)c1)c1ccc(O)c(N)c1` [(II-2)]: 7.46; for `CC(C)(c1ccc(O)cc1)c1ccc(O)cc1` [(II-5), 4,4′-Isopropylidenediphenol]: 6.00. Still for that read-out and setting: the same measure for `CN(C)c1cc(C(C)(C)c2ccc(O)c(N(C)C)c2)ccc1O` [(II-6)]: 8.00. Take `CC(C)(c1ccc(O)cc1)c1ccc(O)c(NC(=N)N)c1` [(II-10)]: in experiment [1] (Homo sapiens, SH-SY5Y, 0.5 h), the pIC50 was 6.00. As to `CC1=CC(C)(C)Nc2ccc(O)cc21` [(III-3), 2,2,4-trimethyl-1,2-dihydro-quinolin-6-ol], in experiment [1] (setting [3]), the pIC50 was 7.15. As to `CCOc1ccc2c(c1)C(C)=CC(C)(C)N2` [(III-4), 6-ethoxy-1,2-dihydro-2,2,4-trimethylguinoline], the pIC50 in experiment [1] (SH-SY5Y cells pre-loaded with DCFC-DA, ferric chloride/ascorbate induced free radical formation, fluorescence change over 30 minutes) is 7.70. In the case of `Cc1c(C)c2c(c(C)c1O)CCC(C)(CNNC(=N)N)O2` (stereo not drawn) [(IV-9)], in experiment [1] (setting [3]), the pIC50 is 6.00. On to `CN(CC(=O)O)C(=N)N` [creatine], for which, in experiment [2] (cells simultaneously treated with 10 μM ionomycin and 2 mM creatine, 6h incubation at 37° C.), the “proportion of cells undergoing apoptosis as evidenced by membrane blebbing” value is given as “approximately 10%”. With `C[C@H](CCC(=O)O)C[C@H](C)C[C@H](C)C(=O)/C=C(\O)[C@H](C)C[C@H](C)C/C=C/[C@@H](C)[C@@H](O)[C@@H](C)[C@@H](O)C[C@@H]1CC[C@@](C)([C@H]2CC[C@@](C)([C@@H](C)O)O2)O1` [ionomycin], the “ionomycin treated cells exhibiting membrane blebbing (final stage of apoptosis)” value in experiment [2] (10 μM ionomycin for 10 minutes, then 6h incubation at 37° C., untreated cells <5%) is recorded as “Approximately 80%”.

By pIC50 is commonly meant −log10 of the IC50, conventionally taken in molar units.
